The text below walks through data of US9226503B2, “Composition and method for attraction of emerald ash borer Agrilus planipennis fairmaire (coleoptera: buprestidae)” (Her Majesty the Queen in Right of Canada, as represented by …, priority 2011, dated 2016).

The test system of test [1] is A. planipennis. The experiment in a line: Field trapping experiment 2 (2009), purple prism traps, Ontario. It counts as in vivo, Agrilus planipennis. The conditions noted are these: as compared to the Phoebe oil alone. The protocol:
(§1) Field trapping. Three trapping experiments were carried out in green ash plantations (F. pennsylvanica Marsch) with low-to-moderate A. planipennis populations about 40 km southeast of Sarnia, Ontario (42° 58′ 0 N, 82° 24′ 0 W) in 2008, 2009 and 2010. Trees at these sites were generally healthy in appearance with low or no signs of decline, and only a small number of trees had obvious signs/symptoms of infestation by A. planipennis. In Ontario sites, trees were 20-25 years old, 4-6 m tall, 10-15 cm in diameter, and spaced about 2 m apart within a row and 2.5 m between rows. In 2010, the trapping experiment was replicated at four sites in Michigan, USA, in addition to the sites in Ontario. Sites in Michigan were 10-100 years old, 10-30 m tall, 15-70 cm in diameter, and located in a mixed woodlot. […] Traps were checked every 2 weeks and A. planipennis were collected, counted and sexed. […]
(§2) The effect of each attractant on mean catch of female and male A. planipennis was analyzed independently using ANOVA and a randomized complete block design. Sites were analyzed separately in 2009 due to differences in sex ratios. In 2010, sites in Ontario were analyzed separately from those in Michigan due to the considerable differences in stand conditions and height of traps with respect to the ash canopy. […]

Test [2] has as its system A. planipennis. The experiment in a line: Field trapping experiment 3 (2010), green sticky prism traps, Ontario and Michigan. The settings on record: lactone alone. It counts as in vivo, Agrilus planipennis. The protocol: as §1, §2

For the molecule `O=C1C/C=C\CCCCCCCCO1` [(3Z)-lactone, (3Z)-dodecen-12-olide], the “number of male or female A. planipennis captured, effect of lactone alone or with Phoebe oil” value in test [1] is “neither (3Z) nor (3E)-lactone alone, or in combination with Phoebe oil, significantly increased”. Also, the “trap captures compared to unbaited control, sites in Ontario” value in test [2] (green traps in the canopy, Ontario, P<0.02) was “slight increase in trap captures”.

Turning to `O=C1C/C=C/CCCCCCCCO1` [(3E)-lactone, (3E)-dodecen-12-olide], in test [1], the “number of male or female A. planipennis captured, effect of lactone alone or with Phoebe oil” value is “neither (3Z) nor (3E)-lactone alone, or in combination with Phoebe oil, significantly increased”. Also, the “trap catch compared to unbaited control” value in test [2] (green traps, 2010, Ontario and Michigan) is listed as “did not affect trap catch”.
